This is an account of results in ChEMBL document CHEMBL5715954, “Silencing c-Myc translation as a therapeutic strategy through targeting PI3Kδ and CK1ε in hematological malignancies” (Blood, 2017).

What all share (design): scale not given: the % may be the effect or the level left
Assay [1] concerns the target Serine/threonine-protein kinase Nek7 (Homo sapiens) (UniProt Q8TDX7). The assay is described as follows: Inhibition of human NEK7 assessed as enzyme activity at 1 uM using casein as substrate preincubated for 20 mins followed by [gamma-33P]-ATP addition and measured after 120 mins by radiometric Hot-SpotSM Kinase assay relative to control.
Assay [2] has as its target T1, SNF-related serine/threonine-protein kinase (Homo sapiens) (UniProt Q9NRH2).
T1 sequence (whole entry): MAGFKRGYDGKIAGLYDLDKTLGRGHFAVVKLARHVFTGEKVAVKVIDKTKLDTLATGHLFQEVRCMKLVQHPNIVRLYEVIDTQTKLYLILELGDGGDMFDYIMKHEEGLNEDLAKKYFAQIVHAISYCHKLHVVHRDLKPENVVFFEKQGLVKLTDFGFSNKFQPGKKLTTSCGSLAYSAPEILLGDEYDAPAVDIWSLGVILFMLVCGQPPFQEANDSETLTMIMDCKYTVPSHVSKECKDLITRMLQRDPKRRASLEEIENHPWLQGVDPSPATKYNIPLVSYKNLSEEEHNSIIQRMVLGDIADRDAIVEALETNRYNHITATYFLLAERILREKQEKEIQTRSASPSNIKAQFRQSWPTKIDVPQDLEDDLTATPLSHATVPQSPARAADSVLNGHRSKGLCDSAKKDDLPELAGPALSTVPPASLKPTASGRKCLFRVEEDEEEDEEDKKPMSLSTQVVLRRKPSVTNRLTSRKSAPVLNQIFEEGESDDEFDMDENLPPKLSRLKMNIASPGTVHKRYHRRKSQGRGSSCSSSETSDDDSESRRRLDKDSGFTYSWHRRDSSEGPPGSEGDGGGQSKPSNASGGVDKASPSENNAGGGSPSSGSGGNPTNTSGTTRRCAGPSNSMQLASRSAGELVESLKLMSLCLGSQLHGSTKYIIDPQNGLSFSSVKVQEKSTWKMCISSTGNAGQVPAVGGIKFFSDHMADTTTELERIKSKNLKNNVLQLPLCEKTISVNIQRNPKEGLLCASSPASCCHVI
The assay is described as follows: Inhibition of human SNRK assessed as enzyme activity at 1 uM using myelin basic protein as substrate preincubated for 20 mins followed by [gamma-33P]-ATP addition and measured after 120 mins by radiometric Hot-SpotSM Kinase assay relative to control.

The target of assay [3] is T2, Serine/threonine-protein kinase TBK1 (Homo sapiens) (UniProt Q9UHD2).
T2 sequence (whole entry): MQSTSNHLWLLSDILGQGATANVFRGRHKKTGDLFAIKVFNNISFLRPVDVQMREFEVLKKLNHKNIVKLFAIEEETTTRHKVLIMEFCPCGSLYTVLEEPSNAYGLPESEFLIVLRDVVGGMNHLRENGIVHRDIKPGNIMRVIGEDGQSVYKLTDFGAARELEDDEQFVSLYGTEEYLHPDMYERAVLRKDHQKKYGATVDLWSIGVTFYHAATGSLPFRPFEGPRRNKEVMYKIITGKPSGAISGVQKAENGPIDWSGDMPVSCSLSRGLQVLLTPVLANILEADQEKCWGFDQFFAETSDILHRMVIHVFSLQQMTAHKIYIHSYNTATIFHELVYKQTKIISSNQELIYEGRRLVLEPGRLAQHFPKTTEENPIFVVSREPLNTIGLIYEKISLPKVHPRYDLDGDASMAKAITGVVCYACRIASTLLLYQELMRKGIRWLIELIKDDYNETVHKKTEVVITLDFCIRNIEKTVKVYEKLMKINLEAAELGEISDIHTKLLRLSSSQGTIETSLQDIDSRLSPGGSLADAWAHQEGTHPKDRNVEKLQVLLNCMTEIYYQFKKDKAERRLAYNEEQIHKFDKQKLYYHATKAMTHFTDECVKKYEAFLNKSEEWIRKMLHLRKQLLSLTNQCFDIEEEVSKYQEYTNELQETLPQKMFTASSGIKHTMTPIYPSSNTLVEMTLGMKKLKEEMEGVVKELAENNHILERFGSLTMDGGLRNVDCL
Description: Inhibition of human TBK1 assessed as enzyme activity at 1 uM using myelin basic protein as substrate preincubated for 20 mins followed by [gamma-33P]-ATP addition and measured after 120 mins by radiometric Hot-SpotSM Kinase assay relative to control.

The target of assay [4] is Death-associated protein kinase 1 (Homo sapiens) (UniProt P53355). Description: Inhibition of human DAPK1 assessed as enzyme activity at 1 uM using KKLNRTLSFAEPG as substrate preincubated for 20 mins followed by [gamma-33P]-ATP addition and measured after 120 mins by radiometric Hot-SpotSM Kinase assay relative to control.
Chain of Death-associated protein kinase 1 (Homo sapiens) (P53355 whole entry, looked up): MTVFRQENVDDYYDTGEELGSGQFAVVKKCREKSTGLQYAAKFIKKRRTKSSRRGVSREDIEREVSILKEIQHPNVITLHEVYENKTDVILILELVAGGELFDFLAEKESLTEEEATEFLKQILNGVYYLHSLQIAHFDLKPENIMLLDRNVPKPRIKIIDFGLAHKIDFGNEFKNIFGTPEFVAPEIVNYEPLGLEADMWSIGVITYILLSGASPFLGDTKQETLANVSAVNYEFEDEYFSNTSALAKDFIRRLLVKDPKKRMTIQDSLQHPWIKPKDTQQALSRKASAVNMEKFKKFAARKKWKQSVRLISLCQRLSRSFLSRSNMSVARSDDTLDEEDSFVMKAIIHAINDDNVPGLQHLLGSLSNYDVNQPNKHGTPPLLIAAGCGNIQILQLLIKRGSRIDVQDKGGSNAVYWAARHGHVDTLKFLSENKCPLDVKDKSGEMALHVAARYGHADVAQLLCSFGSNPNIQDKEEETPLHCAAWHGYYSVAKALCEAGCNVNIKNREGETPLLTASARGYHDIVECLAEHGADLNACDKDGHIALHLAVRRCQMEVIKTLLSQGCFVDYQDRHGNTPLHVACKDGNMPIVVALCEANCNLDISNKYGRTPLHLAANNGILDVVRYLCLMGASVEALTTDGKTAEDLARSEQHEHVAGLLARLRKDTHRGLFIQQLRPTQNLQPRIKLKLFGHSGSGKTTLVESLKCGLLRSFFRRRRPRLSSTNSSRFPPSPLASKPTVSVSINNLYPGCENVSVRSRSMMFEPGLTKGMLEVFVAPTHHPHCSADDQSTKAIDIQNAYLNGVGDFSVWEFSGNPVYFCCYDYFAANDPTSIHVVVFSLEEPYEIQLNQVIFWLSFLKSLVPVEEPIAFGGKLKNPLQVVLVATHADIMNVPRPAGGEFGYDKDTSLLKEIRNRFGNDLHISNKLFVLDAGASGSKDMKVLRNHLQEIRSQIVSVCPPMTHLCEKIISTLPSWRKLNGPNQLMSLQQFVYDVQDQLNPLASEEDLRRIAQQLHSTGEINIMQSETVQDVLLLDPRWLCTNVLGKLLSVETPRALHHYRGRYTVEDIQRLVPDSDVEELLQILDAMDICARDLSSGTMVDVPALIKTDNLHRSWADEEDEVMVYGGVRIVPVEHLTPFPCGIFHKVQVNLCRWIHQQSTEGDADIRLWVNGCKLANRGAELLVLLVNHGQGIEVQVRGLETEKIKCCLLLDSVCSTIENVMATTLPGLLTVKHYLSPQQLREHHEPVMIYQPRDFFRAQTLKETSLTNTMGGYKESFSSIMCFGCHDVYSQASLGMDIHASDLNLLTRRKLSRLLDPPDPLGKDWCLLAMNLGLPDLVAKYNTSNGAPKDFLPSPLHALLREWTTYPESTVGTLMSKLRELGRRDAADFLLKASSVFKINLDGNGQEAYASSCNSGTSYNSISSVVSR
Assay [5] concerns the target T3, Interleukin-1 receptor-associated kinase 4 (Homo sapiens) (UniProt Q9NWZ3).
T3 sequence (whole entry): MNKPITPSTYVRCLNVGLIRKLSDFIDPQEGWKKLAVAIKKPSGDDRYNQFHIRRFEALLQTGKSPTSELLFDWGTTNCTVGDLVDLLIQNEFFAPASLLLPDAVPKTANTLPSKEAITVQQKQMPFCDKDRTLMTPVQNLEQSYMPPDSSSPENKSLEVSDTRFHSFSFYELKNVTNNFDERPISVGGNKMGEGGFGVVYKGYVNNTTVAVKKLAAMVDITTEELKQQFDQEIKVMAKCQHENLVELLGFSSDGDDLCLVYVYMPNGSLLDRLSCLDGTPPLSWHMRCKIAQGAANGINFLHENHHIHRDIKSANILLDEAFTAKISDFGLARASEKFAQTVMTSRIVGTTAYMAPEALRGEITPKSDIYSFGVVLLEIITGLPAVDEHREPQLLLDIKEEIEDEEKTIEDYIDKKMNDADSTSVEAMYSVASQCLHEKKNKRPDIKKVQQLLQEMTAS
Description: Inhibition of human IRAK4 assessed as enzyme activity at 1 uM using myelin basic protein as substrate preincubated for 20 mins followed by [gamma-33P]-ATP addition and measured after 120 mins by radiometric Hot-SpotSM Kinase assay relative to control.

The target of assay [6] is Ribosomal protein S6 kinase beta-1 (Homo sapiens) (UniProt P23443). The assay is described as follows: Inhibition of human p70S6K assessed as enzyme activity at 1 uM using KKRNRTLTK as substrate preincubated for 20 mins followed by [gamma-33P]-ATP addition and measured after 120 mins by radiometric Hot-SpotSM Kinase assay relative to control.
Chain of Ribosomal protein S6 kinase beta-1 (Homo sapiens) (P23443 whole entry, looked up): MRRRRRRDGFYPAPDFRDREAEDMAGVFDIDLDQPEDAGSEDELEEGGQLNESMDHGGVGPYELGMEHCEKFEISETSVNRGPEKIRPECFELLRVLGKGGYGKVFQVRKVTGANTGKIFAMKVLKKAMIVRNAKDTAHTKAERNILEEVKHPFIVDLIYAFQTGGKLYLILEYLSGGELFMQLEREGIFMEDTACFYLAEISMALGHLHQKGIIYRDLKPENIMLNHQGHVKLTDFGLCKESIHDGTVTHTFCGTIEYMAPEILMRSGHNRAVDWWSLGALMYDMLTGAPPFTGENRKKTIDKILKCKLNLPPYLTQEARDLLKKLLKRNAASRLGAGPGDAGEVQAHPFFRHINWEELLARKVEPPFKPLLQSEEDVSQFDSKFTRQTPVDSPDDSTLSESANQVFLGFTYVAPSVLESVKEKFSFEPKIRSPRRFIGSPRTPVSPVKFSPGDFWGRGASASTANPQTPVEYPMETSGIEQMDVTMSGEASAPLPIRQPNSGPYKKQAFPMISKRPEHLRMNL
In assay [7] the target is Receptor-interacting serine/threonine-protein kinase 3 (Homo sapiens) (UniProt Q9Y572). The assay is described as follows: Inhibition of human RIPK3 assessed as enzyme activity at 1 uM using myelin basic protein as substrate preincubated for 20 mins followed by [gamma-33P]-ATP addition and measured after 120 mins by radiometric Hot-SpotSM Kinase assay relative to control.
Chain of Receptor-interacting serine/threonine-protein kinase 3 (Homo sapiens) (Q9Y572 whole entry, looked up): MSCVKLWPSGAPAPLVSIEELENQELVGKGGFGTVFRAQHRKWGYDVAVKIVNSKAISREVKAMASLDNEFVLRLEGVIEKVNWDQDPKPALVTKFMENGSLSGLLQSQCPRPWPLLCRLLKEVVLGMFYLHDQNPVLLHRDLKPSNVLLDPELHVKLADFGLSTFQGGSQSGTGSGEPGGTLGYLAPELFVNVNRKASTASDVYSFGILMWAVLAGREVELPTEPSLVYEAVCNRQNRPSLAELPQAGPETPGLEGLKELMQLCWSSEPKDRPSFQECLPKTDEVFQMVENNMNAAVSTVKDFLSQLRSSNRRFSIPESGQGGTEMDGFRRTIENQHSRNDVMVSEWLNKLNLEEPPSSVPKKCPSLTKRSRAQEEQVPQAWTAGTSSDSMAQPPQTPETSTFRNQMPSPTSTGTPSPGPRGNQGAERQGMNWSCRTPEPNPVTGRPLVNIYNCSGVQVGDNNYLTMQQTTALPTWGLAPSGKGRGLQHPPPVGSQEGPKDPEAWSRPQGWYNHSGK

Assay [8] has as its target G protein-coupled receptor kinase 6 (Homo sapiens) (UniProt P43250). The assay is described as follows: Inhibition of human GRK6 assessed as enzyme activity at 1 uM using casein as substrate preincubated for 20 mins followed by [gamma-33P]-ATP addition and measured after 120 mins by radiometric Hot-SpotSM Kinase assay relative to control.

Chain of Serine/threonine-protein kinase Nek7 (Homo sapiens) (Q8TDX7 whole entry, looked up): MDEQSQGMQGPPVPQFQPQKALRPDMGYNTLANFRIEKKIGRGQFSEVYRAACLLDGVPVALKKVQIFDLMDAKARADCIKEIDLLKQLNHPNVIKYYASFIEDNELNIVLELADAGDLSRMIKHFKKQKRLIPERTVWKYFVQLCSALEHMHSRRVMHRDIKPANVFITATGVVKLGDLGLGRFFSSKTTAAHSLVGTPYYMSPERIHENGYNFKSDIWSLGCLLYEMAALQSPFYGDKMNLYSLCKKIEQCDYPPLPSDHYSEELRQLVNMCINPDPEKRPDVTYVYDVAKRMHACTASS
Chain of G protein-coupled receptor kinase 6 (Homo sapiens) (P43250 whole entry, looked up): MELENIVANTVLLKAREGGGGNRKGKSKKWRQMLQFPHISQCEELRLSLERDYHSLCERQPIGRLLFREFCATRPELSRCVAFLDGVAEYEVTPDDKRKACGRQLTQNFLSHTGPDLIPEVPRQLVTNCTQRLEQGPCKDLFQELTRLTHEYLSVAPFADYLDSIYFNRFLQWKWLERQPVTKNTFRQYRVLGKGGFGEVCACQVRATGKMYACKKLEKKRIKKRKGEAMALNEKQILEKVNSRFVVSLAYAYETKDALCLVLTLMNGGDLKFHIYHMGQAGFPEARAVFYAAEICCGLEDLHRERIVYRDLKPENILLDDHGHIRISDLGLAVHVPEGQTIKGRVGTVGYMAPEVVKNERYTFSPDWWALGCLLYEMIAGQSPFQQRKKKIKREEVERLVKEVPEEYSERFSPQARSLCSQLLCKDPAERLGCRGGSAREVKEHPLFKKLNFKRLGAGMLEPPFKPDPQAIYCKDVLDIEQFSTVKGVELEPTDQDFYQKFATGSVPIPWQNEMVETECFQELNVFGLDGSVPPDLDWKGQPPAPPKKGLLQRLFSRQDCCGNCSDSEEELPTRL

For the compound `C[C@H](Nc1ncnc2nc[nH]c12)c1cc2cccc(Cl)c2c(=O)n1-c1ccccc1`, the Activity stood at 100% in assay [1]; 96.6% in assay [2]; 94.4% in assay [3]; 97% in assay [4]; 91% in assay [5]; 97.2% in assay [6]. The Activity was 97.6% in assay [7] and 96.9% in assay [8].
On to `CC[C@H](Nc1ncnc2[nH]cnc12)c1nc2cccc(F)c2c(=O)n1-c1ccccc1`, for which the Activity in assay [1] was found to be 97.3%; in assay [2], 102%; in assay [3], 89.6%; in assay [4], 95%; in assay [5], 96.3%; in assay [6], 96.5%. Also, the Activity in assay [7] amounted to 102%; in assay [8], 99.5%.
`CC(C)Oc1ccc(-c2nn([C@@H](C)c3oc4ccc(F)cc4c(=O)c3-c3cccc(F)c3)c3ncnc(N)c23)cc1F` [UMBRALISIB]: the Activity in assay [1] is 85.4%; in assay [2], 102%; in assay [3], 93.9%; in assay [4], 99.7%; in assay [5], 101%; in assay [6], 97.9%. Also, the Activity in assay [7] was 107%; in assay [8], 102%.
